# From patent US10328053B2 (Gilead Sciences, Inc., priority 2016, dated 2019)
# Assay: Hepatic Stability Assay (in vitro half-life method)
# Assay type: in vitro ADME
# Parameters: dose or concentration left out as unconfirmed
# Conditions: pooled cryopreserved hepatocytes, 37° C., 1×10^6 cells/mL, 0-6 hours, LC-MS/MS, 39.5 hours is the maximum detectable half life, read-out: t½ (converted)
# Description: Hepatic Stability Assay The metabolic stability of certain compounds disclosed herein was assessed in vitro in pooled cryopreserved hepatocytes using the in vitro half-life method. Incubations were at 37° C. and final concentrations in the incubations were 1×10^6 cells/mL and […] test concentration of the compound. Aliquots were sequentially removed after 0, 1, 3 and 6 hours and analyzed by LC-MS/MS. In vitro half-life was determined by measuring the rate of disappearance of the compound and then scaled to predicted hepatic clearance using the well-stirred model. […] As such, compounds having a value of 39.5 may have a half live that exceeds 39.5 hours.
row,Compound,half-life
1,"Cc1c(C(=O)C(=O)NC2(c3cnn[nH]3)CC2)c2n(c1C(=O)Nc1ccc(F)cc1)[C@@H]1C[C@@H]1C2 [Example 99, (1aR,6aR)-5-(2-((1-(1H-1,2,3-triazol-5-yl)cyclopropyl)amino)-2-oxoacetyl)-N-(4-fluorophenyl)-4-methyl-1,1a,6,6a-tetrahydrocyclopropa[b]pyrrolizine-3-carboxamide]",9.6 h
2,"Cc1c(C(=O)C(=O)NC2(c3c[nH]nn3)CC2)c2n(c1C(=O)Nc1cc(F)cc(Cl)c1)CCC2 [Example 101, 7-(2-((1-(1H-1,2,3-triazol-4-yl)cyclopropyl)amino)-2-oxoacetyl)-N-(3-chloro-5-fluorophenyl)-6-methyl-2,3-dihydro-1H-pyrrolizine-5-carboxamide]",7 h
3,"Cc1c(C(=O)C(=O)NC2(c3c[nH]nn3)CC2)c2n(c1C(=O)Nc1cccc(C(F)F)c1)CCC2 [Example 103, 7-(2-((1-(1H-1,2,3-triazol-4-yl)cyclopropyl)amino)-2-oxoacetyl)-N-(3-(difluoromethyl)phenyl)-6-methyl-2,3-dihydro-1H-pyrrolizine-5-carboxamide]",8.5 h
4,"Cc1c(C(=O)C(=O)NC2(C(F)(F)F)COC2)c2n(c1C(=O)Nc1ccnc(C(F)F)c1)[C@@H]1C[C@@H]1C2 [Example 119, (1aR,6aR)—N-(2-(difluoromethyl)pyridin-4-yl)-4-methyl-5-(2-oxo-2-((3-(trifluoromethyl)oxetan-3-yl)amino)acetyl)-1,1a,6,6a-tetrahydrocyclopropa[b]pyrrolizine-3-carboxamide]",11 h
5,"Cc1c(C(=O)C(=O)NC2(C(=O)N(C)C)CC(F)(F)C2)c2n(c1C(=O)Nc1ccc(F)c(F)c1)CCC2 [Example 125, N-(3,4-difluorophenyl)-7-(2-((1-(dimethylcarbamoyl)-3,3-difluorocyclobutyl)amino)-2-oxoacetyl)-6-methyl-2,3-dihydro-1H-pyrrolizine-5-carboxamide]",1.9 h
6,"CNC(=O)C1(NC(=O)C(=O)c2c(C)c(C(=O)Nc3ccc(F)c(Cl)c3F)n3c2CCC3)CC(F)(F)C1 [Example 127, N-(3-chloro-2,4-difluorophenyl)-7-(2-((3,3-difluoro-1-(methylcarbamoyl)cyclobutyl)amino)-2-oxoacetyl)-6-methyl-2,3-dihydro-1H-pyrrolizine-5-carboxamide]",15.2 h
7,"CNC(=O)C1(NC(=O)C(=O)c2c(C)c(C(=O)Nc3cc(F)c(F)c(Cl)c3)n3c2CCC3)CC(F)(F)C1 [Example 129, N-(3-chloro-4,5-difluorophenyl)-7-(2-((3,3-difluoro-1-(methylcarbamoyl)cyclobutyl)amino)-2-oxoacetyl)-6-methyl-2,3-dihydro-1H-pyrrolizine-5-carboxamide]",20.8 h
8,"Cc1c(C(=O)C(=O)N[C@](C)(CO)C(F)(F)F)c2n(c1C(=O)Nc1ccc(F)c(F)c1)CCC2 [Example 133, (R)—N-(3,4-difluorophenyl)-6-methyl-7-(2-oxo-2-((1,1,1-trifluoro-3-hydroxy-2-methylpropan-2-yl)amino)acetyl)-2,3-dihydro-1H-pyrrolizine-5-carboxamide]",12.5 h
9,"Cc1c(C(=O)C(=O)NC2(c3c[nH]nn3)CC(F)(F)C2)c2n(c1C(=O)Nc1ccnc(C(F)F)c1F)C[C@H](F)C2 [Example 134, (R)-7-(2-((3,3-difluoro-1-(1H-1,2,3-triazol-4-yl)cyclobutyl)amino)-2-oxoacetyl)-N-(2-(difluoromethyl)-3-fluoropyridin-4-yl)-2-fluoro-6-methyl-2,3-dihydro-1H-pyrrolizine-5-carboxamide]",17.9 h
10,"Cc1c(C(=O)C(=O)NC2(C(N)=O)CC(F)(F)C2)c2n(c1C(=O)Nc1cc(F)c(F)c(F)c1)CCC2 [Example 140, 7-(2-((1-carbamoyl-3,3-difluorocyclobutyl)amino)-2-oxoacetyl)-6-methyl-N-(3,4,5-trifluorophenyl)-2,3-dihydro-1H-pyrrolizine-5-carboxamide]",13.5 h
11,"Cc1c(C(=O)C(=O)NC2(C)C[S+]([O-])C2)c2n(c1C(=O)Nc1ccc(F)c(F)c1)CCC2 (stereo not drawn) [Example 145, N-(3,4-difluorophenyl)-6-methyl-7-(2-((3-methyl-1-oxidothietan-3-yl)amino)-2-oxoacetyl)-2,3-dihydro-1H-pyrrolizine-5-carboxamide]",9.7 h
12,"Cc1c(C(=O)C(=O)NC2(C(F)(F)F)COC2)c2n(c1C(=O)Nc1ccnc(C(F)F)c1F)C[C@H](F)C2 [Example 150, (R)—N-(2-(difluoromethyl)-3-fluoropyridin-4-yl)-2-fluoro-6-methyl-7-(2-oxo-2-((3-(trifluoromethyl)oxetan-3-yl)amino)acetyl)-2,3-dihydro-1H-pyrrolizine-5-carboxamide]",16.6 h
13,"Cc1c(C(=O)C(=O)N[C@]2(C)C[S@@+]([O-])C2)c2n(c1C(=O)Nc1ccc(F)c(F)c1)CCC2 [Example 151, N-(3,4-difluorophenyl)-6-methyl-7-(2-(((1r,3r)-3-methyl-1-oxidothietan-3-yl)amino)-2-oxoacetyl)-2,3-dihydro-1H-pyrrolizine-5-carboxamide]",5 h
14,"Cc1c(C(=O)C(=O)N[C@]2(C)C[S@+]([O-])C2)c2n(c1C(=O)Nc1ccc(F)c(F)c1)CCC2 [Example 152, N-(3,4-difluorophenyl)-6-methyl-7-(2-(((1s,3s)-3-methyl-1-oxidothietan-3-yl)amino)-2-oxoacetyl)-2,3-dihydro-1H-pyrrolizine-5-carboxamide]",10.5 h

# Other lines, results leading:
row,half-life,Compound
1,10.5 h,"Cc1c(C(=O)C(=O)NC2(CO)CC(F)(F)C2)c2n(c1C(=O)Nc1ccc(F)c(Cl)c1)CCC2 [Example 117, N-(3-chloro-4-fluorophenyl)-7-(2-((3,3-difluoro-1-(hydroxymethyl)cyclobutyl)amino)-2-oxoacetyl)-6-methyl-2,3-dihydro-1H-pyrrolizine-5-carboxamide]"
2,15.2 h,"Cc1c(C(=O)C(=O)NC2(CO)CC(F)(F)C2)c2n(c1C(=O)Nc1ccc(F)c(F)c1)CCC2 [Example 118, 7-(2-((3,3-difluoro-1-(hydroxymethyl)cyclobutyl)amino)-2-oxoacetyl)-N-(3,4-difluorophenyl)-6-methyl-2,3-dihydro-1H-pyrrolizine-5-carboxamide]"
3,13.5 h,"Cc1c(C(=O)C(=O)NC2(C(N)=O)CC(F)(F)C2)c2n(c1C(=O)Nc1ccc(F)c(Cl)c1)CCC2 [Example 120, 7-(2-((1-carbamoyl-3,3-difluorocyclobutyl)amino)-2-oxoacetyl)-N-(3-chloro-4-fluorophenyl)-6-methyl-2,3-dihydro-1H-pyrrolizine-5-carboxamide]"
4,19.8 h,"Cc1c(C(=O)C(=O)NC2(C(N)=O)CC(F)(F)C2)c2n(c1C(=O)Nc1ccc(F)c(F)c1)CCC2 [Example 121, 7-(2-((1-carbamoyl-3,3-difluorocyclobutyl)amino)-2-oxoacetyl)-N-(3,4-difluorophenyl)-6-methyl-2,3-dihydro-1H-pyrrolizine-5-carboxamide]"
5,1 h,"Cc1c(C(=O)C(=O)NC2(C(=O)N(C)C)CC(F)(F)C2)c2n(c1C(=O)Nc1ccc(F)c(Cl)c1)CCC2 [Example 124, N-(3-chloro-4-fluorophenyl)-7-(2-((1-(dimethylcarbamoyl)-3,3-difluorocyclobutyl)amino)-2-oxoacetyl)-6-methyl-2,3-dihydro-1H-pyrrolizine-5-carboxamide]"
6,6.6 h,"Cc1c(C(=O)C(=O)NC2(C#N)CC(F)(F)C2)c2n(c1C(=O)Nc1ccc(F)c(Cl)c1)CCC2 [Example 130, N-(3-chloro-4-fluorophenyl)-7-(2-((1-cyano-3,3-difluorocyclobutyl)amino)-2-oxoacetyl)-6-methyl-2,3-dihydro-1H-pyrrolizine-5-carboxamide]"
7,7.6 h,"Cc1c(C(=O)C(=O)NC2(C#N)CC(F)(F)C2)c2n(c1C(=O)Nc1ccc(F)c(F)c1)CCC2 [Example 131, 7-(2-((1-cyano-3,3-difluorocyclobutyl)amino)-2-oxoacetyl)-N-(3,4-difluorophenyl)-6-methyl-2,3-dihydro-1H-pyrrolizine-5-carboxamide]"
